In this data set the test system is barley (Hordeum vulgare, var. Georgie). The experiment in a line: Antilodging effects on barley. It counts as in vivo. Also noted: key to Tiller formation / Stem stiffness: 5 = no increase over controls, 3 = moderate significant increase. The following applies: for Stem stiffness / Tiller formation: control 5; for Weight Dry: control 5.2; for Weight Fresh: control 49.1; for Height: control 53.1; for Phytotoxicity: three weeks after spraying. The procedure:
In this experiment the procedure of Example 7 is repeated excepting that the crop used was barley (Hordeum vulgare, var. Georgie; European lodging prone variety). The plants are treated at the 3-4 leaf stage. Plants are watered prior to treatment and then sprayed to provide the kg/ha rate of test compound desired. After spraying the plants are placed on greenhouse benches and watered and fertilized in accordance with normal greenhouse procedures.
Three weeks after spraying the plants are measured and harvested. All treatments are replicated six times and companions are made against untreated controls.
The following rating system is used:
5=No increase over controls
3=Moderate, significant increase over controls.

The record followed here is patent US4367339A, “Substituted N-nitroaniline compounds and inorganic and organic salts thereof useful for enhancing auxiliary branching, canopy flowering and crop yield of plant and as lodging inhibitors therefor” (priority 1980, dated 1983).

On to `Brn1c(-c2ccccc2)cc(-c2ccccc2)[n+]1Br.O=[N+]([O-])[N-]c1c(Br)cccc1Br` [1,2-Dibromo-3,5-diphenylpyrazolium salt with 2,6-dibromo-N--aci-nitroaniline], for which, under “rate 0.25 kg/ha”, the Stem stiffness stood at 4, the Tiller formation is 5 (No increase over controls), the “Weight Dry” value is given as 6.9 g and the “Weight Fresh” value is reported as 59.2 g. For the same compound, under “rate 0.25 kg/ha”, the Height is listed as 58.2 cm and the Phytotoxicity is given as 5 (No increase over controls). In addition, under “rate 0.5 kg/ha”, the Stem stiffness stood at 4, the Tiller formation was 5 (No increase over controls), the “Weight Dry” value is listed as 6.7 g and the “Weight Fresh” value was 60.7 g. Besides, under “rate 0.5 kg/ha”, the Height is on record as 53.3 cm and the Phytotoxicity is recorded as 5 (No increase over controls). Moreover, for the setting “rate 1.0 kg/ha”, the Stem stiffness was 3 (Moderate, significant increase over controls.); the Tiller formation is given as 3 (Moderate, significant increase over controls.); the “Weight Dry” value was 5.9 g; the “Weight Fresh” value worked out at 60.4 g. For the same compound, for the setting “rate 1.0 kg/ha”, the Height worked out at 52.3 cm and the Phytotoxicity is reported as 5 (No increase over controls).
In the case of `Cn1c(-c2ccccc2)cc(-c2ccccc2)[n+]1C.O=[N+]([O-])[N-]c1cccc(Cl)c1Cl` [1,2-Dimethyl-3,5-diphenylpyrazolium salt with 2,3-dichloro-N--aci-nitroaniline], where the note is “rate 0.25 kg/ha”, the Stem stiffness is 5 (No increase over controls), the Tiller formation is on record as 5 (No increase over controls), the “Weight Fresh” value is reported as 51.2 g and the Height is reported as 56.3 cm. In addition, the Phytotoxicity (rate 0.25 kg/ha) is 5 (No increase over controls). Moreover, for the setting “rate 0.5 kg/ha”, the Stem stiffness is given as 5 (No increase over controls), the Tiller formation was 5 (No increase over controls), the “Weight Fresh” value is listed as 52.6 g and the Height amounted to 54.7 cm. The Phytotoxicity (rate 0.5 kg/ha) is listed as 5 (No increase over controls). Further, where the note is “rate 1.0 kg/ha”, the Stem stiffness was 5 (No increase over controls), the Tiller formation is on record as 5 (No increase over controls), the “Weight Dry” value worked out at 6.0 g and the “Weight Fresh” value stood at 57.3 g. Besides, for the setting “rate 1.0 kg/ha”, the Height is recorded as 55.5 cm and the Phytotoxicity is given as 5 (No increase over controls).
As for `Cn1c(-c2ccccc2)cc(-c2ccccc2)[n+]1C.O=[N+]([O-])[N-]c1ccccc1Br` [1,2-Dimethyl-3,5-diphenylpyrazolium salt with 2-Bromo-N--aci-nitroaniline], under “rate 0.25 kg/ha”, the Stem stiffness came to 4, the Tiller formation is reported as 4, the “Weight Fresh” value is 51.0 g and the Height was found to be 52.5 cm. For the setting “rate 0.25 kg/ha”, the Phytotoxicity is given as 5 (No increase over controls). For the setting “rate 0.5 kg/ha”, the Stem stiffness is on record as 5 (No increase over controls), the Tiller formation is recorded as 5 (No increase over controls), the “Weight Fresh” value is on record as 53.5 g and the Height was 50.6 cm. Also, under “rate 0.5 kg/ha”, the Phytotoxicity was 5 (No increase over controls). In addition, where the note is “rate 1.0 kg/ha”, the Stem stiffness is reported as 5 (No increase over controls), the Tiller formation is listed as 5 (No increase over controls), the “Weight Fresh” value came out at 47.4 g and the Height is recorded as 50.0 cm. Besides, the Phytotoxicity (rate 1.0 kg/ha) is given as 5 (No increase over controls).
Turning to `O=[N+]([O-])Nc1ccc(Br)cc1Br` [2,4-Dibromo-N--nitroaniline], under “rate 0.25 kg/ha”, the Stem stiffness is 3 (Moderate, significant increase over controls.); the Tiller formation worked out at 4; the “Weight Dry” value is listed as 7.8 g; the “Weight Fresh” value was 63.5 g. Under “rate 0.25 kg/ha”, the Height came to 54.7 cm and the Phytotoxicity is reported as 5 (No increase over controls). In addition, where the note is “rate 0.5 kg/ha”, the Stem stiffness is given as 5 (No increase over controls), the Tiller formation is on record as 5 (No increase over controls), the “Weight Dry” value stood at 6.7 g and the “Weight Fresh” value is 56.3 g. For the setting “rate 0.5 kg/ha”, the Height was 56.0 cm and the Phytotoxicity was 5 (No increase over controls). For the same compound, under “rate 1.0 kg/ha”, the Stem stiffness was 5 (No increase over controls), the Tiller formation is reported as 5 (No increase over controls), the “Weight Fresh” value was determined as 46.4 g and the Height was determined as 53.3 cm. The Phytotoxicity (rate 1.0 kg/ha) was 5 (No increase over controls).
Regarding `O=[N+]([O-])N(F)c1c(Br)cccc1Br` [2,6-Dibromo-N--fluoro-N--nitroaniline], where the note is “rate 0.25 kg/ha”, the Stem stiffness was 4, the Tiller formation came out at 4, the “Weight Dry” value was 6.0 g and the “Weight Fresh” value is on record as 57.8 g. For the setting “rate 0.25 kg/ha”, the Height was 52.0 cm and the Phytotoxicity is reported as 5 (No increase over controls). Further, for the setting “rate 0.5 kg/ha”, the Stem stiffness was 5 (No increase over controls), the Tiller formation is 5 (No increase over controls), the “Weight Fresh” value is 52.6 g and the Height stood at 51.0 cm. Besides, the Phytotoxicity (rate 0.5 kg/ha) was 5 (No increase over controls). Besides, for the setting “rate 1.0 kg/ha”, the Stem stiffness is 5 (No increase over controls), the Tiller formation came to 4, the “Weight Fresh” value was 49.2 g and the Height is given as 45.2 cm. Also, the Phytotoxicity (rate 1.0 kg/ha) is given as 5 (No increase over controls).
With `O=[N+]([O-])Nc1c(Br)cccc1Br` [2,6-Dibromo-N--nitroaniline], under “rate 0.25 kg/ha”, the Stem stiffness was found to be 4, the Tiller formation is 4, the “Weight Dry” value is 6.2 g and the “Weight Fresh” value was 58.3 g. Further, where the note is “rate 0.25 kg/ha”, the Height came to 50.5 cm and the Phytotoxicity is recorded as 5 (No increase over controls). Further, where the note is “rate 0.5 kg/ha”, the Stem stiffness stood at 4; the Tiller formation is 3 (Moderate, significant increase over controls.); the “Weight Dry” value is listed as 6.9 g; the “Weight Fresh” value was 67.5 g. Also, for the setting “rate 0.5 kg/ha”, the Height is recorded as 53.0 cm and the Phytotoxicity is 5 (No increase over controls). Besides, under “rate 1.0 kg/ha”, the Stem stiffness came to 4; the Tiller formation is listed as 3 (Moderate, significant increase over controls.); the “Weight Dry” value is 5.4 g; the “Weight Fresh” value was found to be 55.8 g. Where the note is “rate 1.0 kg/ha”, the Height was 48.3 cm and the Phytotoxicity was 5 (No increase over controls).
In the case of `N#Cc1ccc(N[N+](=O)[O-])c(Br)c1` [2-Bromo-4-cyano-N--nitroaniline], for the setting “rate 0.25 kg/ha”, the Stem stiffness is reported as 5 (No increase over controls), the Tiller formation is listed as 4, the “Weight Dry” value is reported as 7.4 g and the “Weight Fresh” value is recorded as 62.2 g. In addition, under “rate 0.25 kg/ha”, the Height is on record as 53.0 cm and the Phytotoxicity was 5 (No increase over controls). Besides, for the setting “rate 0.5 kg/ha”, the Stem stiffness is given as 5 (No increase over controls), the Tiller formation is 4, the “Weight Dry” value turned out to be 7.0 g and the “Weight Fresh” value stood at 59.2 g. Further, for the setting “rate 0.5 kg/ha”, the Height is on record as 53.3 cm and the Phytotoxicity is 5 (No increase over controls). Under “rate 1.0 kg/ha”, the Stem stiffness is given as 5 (No increase over controls), the Tiller formation is 5 (No increase over controls), the “Weight Dry” value stood at 7.0 g and the “Weight Fresh” value was found to be 60.9 g. For the same compound, under “rate 1.0 kg/ha”, the Height worked out at 53.2 cm and the Phytotoxicity is on record as 5 (No increase over controls).
As to `CCc1cccc(C(C)C)c1N[N+](=O)[O-]` [2-Ethyl-6-isopropyl-N--nitroaniline], for the setting “rate 0.25 kg/ha”, the Stem stiffness worked out at 4, the Tiller formation was 4, the “Weight Fresh” value came out at 50.5 g and the Height amounted to 47.7 cm. For the same compound, the Phytotoxicity (rate 0.25 kg/ha) is reported as 5 (No increase over controls). Also, under “rate 0.5 kg/ha”, the Stem stiffness was found to be 4; the Tiller formation is 3 (Moderate, significant increase over controls.); the “Weight Dry” value is listed as 5.9 g; the “Weight Fresh” value came to 59.3 g. Also, for the setting “rate 0.5 kg/ha”, the Height was found to be 48.7 cm and the Phytotoxicity was 5 (No increase over controls). In addition, for the setting “rate 1.0 kg/ha”, the Stem stiffness is reported as 4, the Tiller formation was found to be 4, the “Weight Dry” value is recorded as 5.4 g and the “Weight Fresh” value is 56.5 g. Further, under “rate 1.0 kg/ha”, the Height is given as 51.0 cm and the Phytotoxicity is on record as 5 (No increase over controls).
`Cc1cc(C)c(N[N+](=O)[O-])c(I)c1` [2-Iodo-4,6-dimethyl-N--nitroaniline]: for the setting “rate 0.25 kg/ha”, the Stem stiffness is listed as 5 (No increase over controls), the Tiller formation is on record as 5 (No increase over controls), the “Weight Fresh” value is recorded as 54.1 g and the Height was 52.7 cm. Further, the Phytotoxicity (rate 0.25 kg/ha) is given as 5 (No increase over controls). Also, where the note is “rate 0.5 kg/ha”, the Stem stiffness was 5 (No increase over controls), the Tiller formation is listed as 5 (No increase over controls), the “Weight Fresh” value worked out at 52.7 g and the Height is recorded as 52.5 cm. Besides, the Phytotoxicity (rate 0.5 kg/ha) is listed as 5 (No increase over controls). For the setting “rate 1.0 kg/ha”, the Stem stiffness is 5 (No increase over controls), the Tiller formation was 5 (No increase over controls), the “Weight Dry” value is 6.2 g and the “Weight Fresh” value is on record as 58.0 g. Besides, where the note is “rate 1.0 kg/ha”, the Height was determined as 53.5 cm and the Phytotoxicity was 5 (No increase over controls).
